Columns and labels:
[1] = Biliary (hepatobiliary) excretion in rats after a 30-min infusion of Kang-Ai injection; type: in vivo, Sprague–Dawley rats; conditions: rat bile; Kang-Ai injection 6 mL/kg iv
Method in brief: (§1)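 Urine collected in metabolic cages at 0–4, 4–8, 8–12 h and bile at 0–3, 3–6, 6–9, 9–12 h after infusion start, weighed and frozen at −80 °C. Non-compartmental analysis; CLR and CLB as cumulative urinary or biliary amount divided by plasma AUC0-∞, fe-U and fe-B as cumulative amount/dose; mean ± SD (n = 3).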

UGT1A9 = target: T1, UGT1A9 (Homo sapiens, UniProt O60656); assay: Inhibition of expressed UGT1A9 (probe propofol); type: in vitro ADME; conditions: recombinant isozyme; mean ± SD of triplicate; unit not given (IC50 classes in μM); read-out: IC50 towards UGT1A9
T1 sequence (O60656 26-530): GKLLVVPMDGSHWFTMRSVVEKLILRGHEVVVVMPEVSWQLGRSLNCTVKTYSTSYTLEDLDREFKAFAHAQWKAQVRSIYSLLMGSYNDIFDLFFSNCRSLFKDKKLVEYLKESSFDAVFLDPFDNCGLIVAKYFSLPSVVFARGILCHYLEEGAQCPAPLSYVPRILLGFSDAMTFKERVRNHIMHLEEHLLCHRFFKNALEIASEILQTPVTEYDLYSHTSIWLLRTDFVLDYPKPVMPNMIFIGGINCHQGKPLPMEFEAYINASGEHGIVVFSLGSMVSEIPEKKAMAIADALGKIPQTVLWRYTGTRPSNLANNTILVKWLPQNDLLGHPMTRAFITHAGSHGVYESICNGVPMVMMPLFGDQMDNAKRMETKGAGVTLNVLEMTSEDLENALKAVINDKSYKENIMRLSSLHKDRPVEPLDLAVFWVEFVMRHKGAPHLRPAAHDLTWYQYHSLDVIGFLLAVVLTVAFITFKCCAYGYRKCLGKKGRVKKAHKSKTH
Description: (§2) After centrifugation (13,800g, 10 min), the supernatant (8 μL) was obtained for determination by UHPLC system.
(§3) Similarly, β-estradiol (60 μM), propofol (40 μM) and 4-MU (350 μM) were typically used as the substrates for UGT1A1, 1A9 and 2B7, respectively. After optimization of incubation conditions (Additional file 1: Fig. S2), the protein concentrations for UGT1A1, 1A9, and 2B7 were 0.125, 0.05, and 0.05 mg/mL, respectively.

[2] = Urinary (renal) excretion in rats after a 30-min infusion of Kang-Ai injection; type: in vivo, Sprague–Dawley rats; conditions: Kang-Ai injection 6 mL/kg iv
Method in brief: as §1

CYP3A4 = CYP3A4 (Homo sapiens, UniProt P08684); assay: Inhibition of recombinant CYP3A4 (probe nifedipine); type: in vitro ADME; conditions: recombinant isozyme; mean ± SD of triplicate; unit not given (IC50 classes in μM); read-out: IC50 towards CYP3A4
Description: In this study, phenacetin (100 μM), coumarin (100 μM), bupropion (100 μM), paclitaxel (60 μM), tolbutamide (200 μM), mephenytoin (100 μM), chlorzoxazone (200 μM) and nifedipine (40 μM) have been used as the probe substrates for CYP1A2, 2A6, 2B6, 2C8, 2C9, 2C19, 2E1 and 3A4, respectively.

UGT2B7 = target: T2, UGT2B7 (Homo sapiens, UniProt P16662); assay: Inhibition of expressed UGT2B7 (probe 4-MU); type: in vitro ADME; conditions: recombinant isozyme; mean ± SD of triplicate; unit not given (IC50 classes in μM); read-out: IC50 towards UGT2B7
T2 sequence (P16662 24-529): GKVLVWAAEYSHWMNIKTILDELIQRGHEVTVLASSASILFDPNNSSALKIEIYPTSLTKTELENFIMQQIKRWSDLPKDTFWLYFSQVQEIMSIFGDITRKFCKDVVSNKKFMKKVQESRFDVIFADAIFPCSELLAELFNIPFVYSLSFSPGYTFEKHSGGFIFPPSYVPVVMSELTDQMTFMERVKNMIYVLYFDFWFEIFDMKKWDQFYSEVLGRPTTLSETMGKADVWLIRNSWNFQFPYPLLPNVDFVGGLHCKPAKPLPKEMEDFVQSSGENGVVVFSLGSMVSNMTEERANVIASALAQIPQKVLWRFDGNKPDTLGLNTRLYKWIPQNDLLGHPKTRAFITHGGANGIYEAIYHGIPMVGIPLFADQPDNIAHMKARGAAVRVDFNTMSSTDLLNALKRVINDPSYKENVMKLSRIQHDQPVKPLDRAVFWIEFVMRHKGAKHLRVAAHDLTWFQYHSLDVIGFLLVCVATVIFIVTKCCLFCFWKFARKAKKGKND
Description: as §2, §3

[3] = Stability tests of analytes in rat plasma QC samples; type: in vitro ADME; conditions: rat plasma
Description: […] The dilution integrity was investigated by analyzing six replicate samples with each analyte, and each analyte were diluted 10-fold with blank rat matrix. Furthermore, the diluted samples were analyzed using freshly prepared calibration curve to calculate RE and RSD, which should be no more than ± 15% as criterion.

Sequence of CYP3A4 (P08684 whole entry): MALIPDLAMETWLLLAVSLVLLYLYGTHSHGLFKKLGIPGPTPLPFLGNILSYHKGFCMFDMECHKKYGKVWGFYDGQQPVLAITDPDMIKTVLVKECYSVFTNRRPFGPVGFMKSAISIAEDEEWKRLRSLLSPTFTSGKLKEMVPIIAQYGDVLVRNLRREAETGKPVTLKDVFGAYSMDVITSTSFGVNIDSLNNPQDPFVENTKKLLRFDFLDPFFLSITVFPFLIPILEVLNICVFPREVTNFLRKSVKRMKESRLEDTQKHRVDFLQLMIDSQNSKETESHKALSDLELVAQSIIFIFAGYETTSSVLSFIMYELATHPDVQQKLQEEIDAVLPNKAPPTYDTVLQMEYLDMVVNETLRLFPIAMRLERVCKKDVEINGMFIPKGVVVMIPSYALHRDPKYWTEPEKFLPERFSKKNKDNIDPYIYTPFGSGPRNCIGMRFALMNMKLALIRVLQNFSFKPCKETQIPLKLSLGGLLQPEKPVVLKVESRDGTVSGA

- detection in bile [1]: not detected in bile
- IC50 (UGT1A9): > 100 µM
- CL renal ([2]; male, Sprague-Dawley, urine and plasma, rat, read-out: CLR (renal excretory clearance) (converted)): 0.00633 mL/min
- fe-U,0–12h (fraction of dose excreted into urine) ([2]; rat urine 0–12 h): 6.41 ± 1.47%
- IC50 (CYP3A4): > 100 µM
- IC50 (UGT2B7): > 100 µM
- At -80 °C for 48 h, Mean±SD ([3]; nominal conc. 20 nM): 20.64 ± 1.63 nM
- At -80 °C for 48 h, RE ([3]; nominal conc. 20 nM): 8.70%
- Extracted samples at 8 °C for 18 h, Mean±SD ([3]; nominal conc. 20 nM): 17.96 ± 0.32 nM
- Extracted samples at 8 °C for 18 h, RE ([3]; nominal conc. 20 nM): -11.74%
- Short-term stability at room temperature for 6 h, Mean±SD ([3]; nominal conc. 20 nM): 20.30 ± 1.81 nM
- Short-term stability at room temperature for 6 h, RE ([3]; nominal conc. 20 nM): 9.00%
- Three freeze-thaw cycles (-80 °C ↔ 23 °C), Mean±SD ([3]; nominal conc. 20 nM): 19.99 ± 1.88 nM
- Three freeze-thaw cycles (-80 °C ↔ 23 °C), RE ([3]; nominal conc. 20 nM): -10.85%
- At -80 °C for 48 h, Mean±SD ([3]; nominal conc. 100 nM): 94.32 ± 8.04 nM
- At -80 °C for 48 h, RE ([3]; nominal conc. 100 nM): -13.46%
- Extracted samples at 8 °C for 18 h, Mean±SD ([3]; nominal conc. 100 nM): 101.02 ± 12.87 nM
- Extracted samples at 8 °C for 18 h, RE ([3]; nominal conc. 100 nM): -13.83%
- Short-term stability at room temperature for 6 h, Mean±SD ([3]; nominal conc. 100 nM): 91.65 ± 3.42 nM
- Short-term stability at room temperature for 6 h, RE ([3]; nominal conc. 100 nM): -12.30%
- Three freeze-thaw cycles (-80 °C ↔ 23 °C), Mean±SD ([3]; nominal conc. 100 nM): 108.29 ± 6.26 nM
- Three freeze-thaw cycles (-80 °C ↔ 23 °C), RE ([3]; nominal conc. 100 nM): 12.24%
- At -80 °C for 48 h, Mean±SD ([3]; nominal conc. 400 nM): 428.49 ± 29.97 nM
- At -80 °C for 48 h, RE ([3]; nominal conc. 400 nM): 12.25%
- Extracted samples at 8 °C for 18 h, Mean±SD ([3]; nominal conc. 400 nM): 409.55 ± 29.87 nM
- Extracted samples at 8 °C for 18 h, RE ([3]; nominal conc. 400 nM): 9.12%
- Short-term stability at room temperature for 6 h, Mean±SD ([3]; nominal conc. 400 nM): 388.96 ± 18.81 nM
- Short-term stability at room temperature for 6 h, RE ([3]; nominal conc. 400 nM): -6.00%
- Three freeze-thaw cycles (-80 °C ↔ 23 °C), Mean±SD ([3]; nominal conc. 400 nM): 441.95 ± 3.33 nM
- Three freeze-thaw cycles (-80 °C ↔ 23 °C), RE ([3]; nominal conc. 400 nM): 11.44%
Structure (SMILES): CC(C)=CCC[C@](C)(O[C@@H]1O[C@H](CO[C@@H]2O[C@H](CO)[C@@H](O)[C@H](O)[C@H]2O)[C@@H](O)[C@H](O)[C@H]1O)[C@H]1CC[C@]2(C)[C@@H]1[C@H](O)C[C@@H]1[C@@]3(C)CC[C@H](O[C@@H]4O[C@H](CO)[C@@H](O)[C@H](O)[C@H]4O[C@@H]4O[C@H](CO)[C@@H](O)[C@H](O)[C@H]4O)C(C)(C)[C@@H]3CC[C@]12C [Compound D5, Ginsenoside Rb1]

— PMC7339578, “Multiple circulating alkaloids and saponins from intravenous Kang-Ai injection inhibit human cytochrome P450 and UDP-glucuronosyltransferase isozymes: potential drug–drug interactions” (Chinese Medicine, 2020)
